Assay [1] has as its system HL-60. In words: Cytotoxicity against human HL60 cells. The class given is functional, cell-based.
Assay [2] has as its system MCF7. In words: Cytotoxicity against human MCF7 cells. The class given is functional, cell-based.
Assay [3] concerns A549. In words: Cytotoxicity against human A549 cells. It counts as functional, cell-based.
Assay [4] deals with Amphibalanus amphitrite. The assay can be described thus: Antifouling activity against Balanus amphitrite assessed as larval settlement barnacle. The class given is functional, organism-based.

Converted amounts (≈) assume the structure as drawn.

Consider `CC1=C2C(=CO[C@@H](C)[C@@H]2C)C(=O)[C@@](Cc2ccccc2)(C[C@]2(Cc3ccccc3)C(=O)C3=CO[C@@H](C)[C@H](C)C3=C(C)C2=O)C1=O` [ASPERGILONE B], for which the IC50 in assay [1], in assay [2] and in assay [3] was > 50 µg/mL each time.

For `CC1=C2C(=CO[C@@H](C)[C@@H]2C)C(=O)C(Cc2ccccc2)(Cc2ccccc2)C1=O` [ASPERGILONE A], the half-inhibitory concentration (IC50) – broadly, the concentration that gives 50% inhibition – worked out at 3.2 µg/mL (≈ 8.28 µM) in assay [1], 25 µg/mL (≈ 64.7 µM) in assay [2] and 37 µg/mL (≈ 95.7 µM) in assay [3]. The EC50 (as a rule, the concentration giving half of the maximal effect) in assay [4] was found to be 25 µg/mL (≈ 64.7 µM).

The values are drawn from ChEMBL document CHEMBL1641487, “Aspergilones A and B, two benzylazaphilones with an unprecedented carbon skeleton from the gorgonian-derived fungus Aspergillus sp” (Bioorg Med Chem Lett, 2011).
